From paper PMC7956625, “Optimization and Anti-Cancer Properties of Fluoromethylketones as Covalent Inhibitors for Ubiquitin C-Terminal Hydrolase L1” (Molecules, 2021) come the findings set out here.

Assay [1] has as its target T1, His-UCHL1 (Homo sapiens, UniProt P09936).
T1 construct: made in house
T1 sequence (P09936 1-223): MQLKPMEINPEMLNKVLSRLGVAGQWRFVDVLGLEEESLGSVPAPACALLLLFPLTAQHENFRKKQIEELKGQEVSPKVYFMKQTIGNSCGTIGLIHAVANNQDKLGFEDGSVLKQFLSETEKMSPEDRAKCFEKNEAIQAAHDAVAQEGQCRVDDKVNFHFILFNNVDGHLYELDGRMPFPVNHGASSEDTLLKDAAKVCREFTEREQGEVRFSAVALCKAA
The experiment in a line: Ub binding affinity analysis using biolayer interferometry. The settings on record: His-UCHL1 preincubated with 1 (2 mM) overnight at room temperature. (In general: Biolayer interferometry detects binding as a change in optical thickness at a sensor tip.)
Protocol: The concentration of His-UCHL1 was determined by A280 on a NanoDrop system (Thermo Scientific), after which His-UCHL1 was diluted into BLI buffer [1× PBS containing 0.05% (v/v) Tween 20 and 0.1% (w/v) bovine serum albumin (BSA)]. […] The Ni-NTA biosensor was dipped first into BLI buffer (initial baseline, 60 s), then into the His-UCH protein wells (loading step, 300 s), then into BLI buffer alone (baseline step, 60 s), then into the lowest concentration of UbV (association step, 120 s), and then into buffer alone (dissociation step, 100 s). A reference sensor loaded with protein was dipped into wells containing only buffer to adjust for protein-buffer signals. The association-dissociation was repeated with increasing concentrations of UbV. All measurements were taken at 30 °C.
Octet RED384 Data Analysis Software (ForteBio, version 9.0.0.15) was used to collect and analyze the raw data for the association and dissociation curves.

For assay [2], the target named is T2, UCHL1^WT (Homo sapiens, UniProt P09936).
T2 construct: His (N); made in house
T2 sequence (P09936 1-223): T1 sequence (P09936 1-223)
The experiment in a line: Click reaction and in-gel fluorescence, recombinant protein. The settings on record: 10 µM inhibitor, 3 h, Cy5-Azide click. In kind it is binding. As to the method: (§1) A common shortcoming to covalent inhibitors is that the reactive electrophilic groups may partake in non-specific labeling of off-target cysteines. To investigate if alternative cysteines are affected on UCHL1 we used analog 34 to confirm that the fluoromethylketone derivatives only conjugate Cys90. […] Additionally, samples were analyzed by mass spectrometry to increase sensitivity for detection of any non-Cys90 adducts. […]
(§2) Solutions containing 1 mg/mL recombinant UCHL1^WT or UCHL1^C90A (from pET15b) (49 µL) was incubated with 10 µM inhibitor for 3 h at room temperature in PBS starting block buffer (Thermo Scientific # 37538). After 3 h, 6 µL of a freshly prepared cocktail was added to each sample, consisting of: 3 µL 1.7 mM THPTA in 1:4 DMSO/tBuOH (100 µM final concentration), 1 µL 50 mM CuSO4 (1 mM final concentration), 1 µL TCEP HCl (25 µM final concentration), and 1 uL Cy5-Azide (#AZ118, Click Chemistry Tools, Scottsdale, AZ, USA; 25 µM final concentration). The samples were allowed to react for 2 h at room temperature protected from light before precipitating the sample by adding 600 µL MeOH, 150 µL chloroform, and 400 µL water, vortexing between each addition. The samples were pelleted by centrifuging at […] for 5 min. […] The samples were then analyzed by SDS-PAGE and imaged on an Odyssey system (LI-COR, Lincoln, NE, USA) and subsequently Coomassie stained.

In assay [3] the target is T3, UCHL1 C90A (Homo sapiens, UniProt P09936, C90A).
T3 construct: His (N); made in house
T3 sequence (P09936 1-223 C90A): T1 sequence (P09936 1-223) with C90A
The assay is described as above. In kind it is binding. The settings on record: 10 µM inhibitor, 3 h, Cy5-Azide click. On the procedure: as §1, §2

For assay [4], the target named is T4, UCHL1 (Homo sapiens, UniProt P09936).
T4 sequence (P09936 1-223): T1 sequence (P09936 1-223)
Briefly: SW1271 cell activity-based probe target engagement assay. On the procedure: UCHL1 is a key promoter of cell invasion and metastasis in small cell lung cancer but not necessarily required for cell viability or proliferation. Thus, we chose to assess the efficacy of targeting UCHL1 using the SW1271 small cell lung cancer cell line. […] The Ub-ABP assay was used to confirm on target engagement of UCHL1 within these cells.
[…] Cell pellets were thawed on ice before resuspending in 200 µL lysis buffer (50 mM Tris pH 7.6, 150 mM NaCl, 5 mM MgCl2, 0.5 mM EDTA, 5 mM DTT, 2 mM ATP, 0.5% NP-40, 10% v/v glycerol) and incubating on ice for 30 min with vigorous vortexing every 10 min. Cell lysate was clarified by centrifugation (17,000× g for 10 min) and the supernatant was collected, and the concentration was determined by Bradford (performed according to manufacturer’s protocol). Cells were normalized to 2 mg mL^−1. To each reaction mixture was added 36 µL of lysate and 2 µL of HA-Ub-VME or lysis buffer. This was incubated for 30 min at room temperature before quenching with 15 µL of 4X Laemmli buffer and heating to 95 °C for 5 min. Samples were subjected to SDS-PAGE and immunoblot.

Assay [5] addresses T5, WT-UCHL1 (Homo sapiens, UniProt P09936).
T5 construct: His (N); made in house
T5 sequence (P09936 1-223): T1 sequence (P09936 1-223)
The experiment in a line: Mass spectrometry analysis of 34 adducts on UCHL1. To be noted: WT-UCHL1 + 34 (1:1). In kind it is binding. As to the method: as §1
(§3) Solutions containing 10 µM recombinant UCHL1^WT or UCHL1^C90A (from pET15b) (49 µL) was incubated with either 10 µM or 20 µM inhibitor for 3 h at room temperature in PBS starting block buffer (Thermo Scientific # 37538). To quench reaction, chilled acetone was added to the sample to achieve an overall 80% acetone solution. After overnight storage at −20 °C, suspension was centrifuged at 14,000× g at 4 °C for 15 min. Supernatant was discarded, and pellet was dried by vacuum centrifugation for 1 h. Pellet was reconstituted in 50/50 water/acetonitrile with 0.1% formic acid. 25 pmol per sample was analyzed by LC/MS (Agilent 1260 Infinity II with a ZORBAX Rapid Resolution High Definition 300Å Stable Bond C3, 2.1 × 100 mm, 1.8 µm column) attached to an Agilent 6129 quadrupole mass spectrometer in positive ion mode.
(§4) The column was held at 45 °C. Mobile solution A was 0.1% formic acid in water, and mobile phase B was 0.1% formic acid in acetonitrile. The gradient used was hold at 5% B for 5 min, increase linearly to […] for 10, and then hold at 95% B for 5 min. The mass data were collected at a range of 500–1000 m/z.
(§5) Raw data were processed using MestReNova. For all samples, the deconvoluted mass was calculated with a charged state range from 27 to 36, m/z range of 670–900 Da, and deconvoluted mass range from 25,000–26,000 Da. […] For C90A mutant, this abundance threshold was lowered to 5% to detect the presence of any reacted protein. 34 adduct is expected to be +486.00 Da after displacement of fluorine.

Assay [6] concerns the target T3, UCHL1 C90A. Briefly: Mass spectrometry analysis of 34 adducts on UCHL1. In kind it is binding. As to the method:
as §1, §3, §4, §5

Positions count from the first letter of the chain named. Entries after “also recorded” stand apart in the source; their conditions may differ. Where a SMILES comes first, the peptide text is derived from it. The star is where a group is joined. Cbz = O=C(OCc1ccccc1)*; CH2F = FC*

As to `COC(=O)CC[C@H](NC(=O)[C@H](C)NC(=O)[C@@H](NC(=O)OCc1ccccc1)C(C)C)C(=O)CF` [Cpd 1, benzyloxycarbonyl-Val-Ala-Glu(γ-methoxy)-fluoromethylketone] (Cbz-Val-Ala-Glu(OMe)-CH2F), in assay [1], the “effect of conjugated 1 on UCHL1:Ub interaction” value is listed as “completely abrogated the ability of UCHL1 to interact with Ub”.

As to `C#Cc1ccc(COC(=O)N[C@H](C(=O)N[C@@H](C)C(=O)N[C@@H](CCC(=O)OC)C(=O)CF)C(C)C)cc1` [Cpd 34], the “covalent adduct with WT-UCHL1 (in-gel fluorescence)” value in assay [2] is “forms a covalent adduct with WT-UCHL1; also recorded: formed a covalent adduct”. The “covalent adduct with UCHL1 C90A (in-gel fluorescence)” value in assay [3] was “does not form an adduct; also recorded: no fluorescent bands were observed”. Besides, the “selectivity over other DUBs in SW1271 cells (HA blot)” value in assay [4] (HA immunoblot) is recorded as “demonstrated selectivity over other DUBs”. Besides, the “HA-Ub-VME complex formation with UCHL1 in SW1271 cells” value in assay [4] (dose-response, UCHL1 immunoblot) is listed as “inhibited HA-Ub-VME complex formation with UCHL1 in a dose-dependent manner”. For the same compound, the “Adduct(s) Observed (Da)” value in assay [5] was “+486.00 Da”; in assay [6] (UCHL1 C90A + 34 (1:1)), “none”; in assay [6] (UCHL1 C90A + 34 (1:2)), “no adducts observed and none”.
